Reference: patent publication US9695155B2, “Herbicidal substituted pyrimidinyloxy benzene compounds” (E. I. DU PONT DE NEMOURS AND COMPANY, priority 2013, dated 2017)

Experiments:
[1] = system: windgrass; assay: Test D preemergence; assay type: in vivo, Apera spica-venti; conditions: Apera spica-venti, pre-emergence
Text: (§1) Seeds of plant species selected from bluegrass (annual bluegrass, Poa annua), blackgrass (Alopecurus myosuroides), canarygrass (littleseed canarygrass, Phalaris minor), chickweed (common chickweed, Stellaria media), galium (catchweed bedstraw, Galium aparine), bromegrass, downy (downy bromegrass, Bromus tectorum), field poppy (Papaver rhoeas), field violet (Viola arvensis), green foxtail (Setaria viridis), deadnettle (henbit deadnettle, Lamium amplexicaule), Italian ryegrass (Lolium multiflorum), kochia (Kochia scoparia), lambsquarters (Chenopodium album), oilseed rape (Brassica napus), pigweed (Amaranthus retroflexus), chamomile (scentless chamomile, Matricaria inodora), Russian thistle (Salsola kali), speedwell (bird's-eye speedwell, Veronica persica), spring barley (Hordeum vulgare), spring wheat (Triticum aestivum), wild buckwheat (Polygonum convolvulus), wild mustard (Sinapis arvensis), wild oat (Avena fatua), wild radish (Raphanus raphanistrum), windgrass (Apera spica-venti), winter barley (Hordeum vulgare), and winter wheat (Triticum aestivum) were planted into a silt loam soil and treated preemergence with test chemicals formulated in a non-phytotoxic solvent mixture which included a surfactant.
(§2) At the same time, these species were planted in pots containing Redi-Earth® planting medium (Scotts Company, 14111 Scottslawn Road, Marysville, Ohio 43041) comprising spaghnum peat moss, vermiculite, wetting agent and starter nutrients and treated with postemergence applications of the test chemicals formulated in the same manner. Plants ranged in height from 2 to 18 cm (1- to 4-leaf stage). Treated plants and controls were maintained in a controlled growth environment for 7 to 21 days after which time all species were compared to controls and visually evaluated. Plant response ratings, summarized in Table D, are based on a scale of 0 to 100 where 0 is no effect and 100 is complete control. A dash (-) response means no test result.

[2] = system: field poppy; assay: Test D preemergence; assay type: in vivo, Papaver rhoeas; conditions: Papaver rhoeas, pre-emergence, scale 0-100, read-out: Plant response rating, Field Poppy
Procedure, shortened: (§3)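 Seeds sown in silt loam soil got preemergence sprays; plants in peat/vermiculite potting medium were sprayed postemergence at 2–18 cm (1- to 4-leaf stage). Chemicals were formulated in a non-phytotoxic solvent mixture with surfactant. After 7 to 21 days in a controlled environment, injury was rated visually versus controls, 0 (no effect) to 100 (complete control).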

[3] = system: speedwell; assay: Test D postemergence; assay type: in vivo, Veronica persica; conditions: Veronica persica, post-emergence
Text: as §1, §2

[4] = system: chamomile; assay: Test D postemergence; assay type: in vivo, Matricaria inodora; conditions: Tripleurospermum inodorum, post-emergence
Text: as §1, §2

[5] = system: spring barley; assay: Test D postemergence; assay type: in vivo, Hordeum vulgare; conditions: Hordeum vulgare, post-emergence, Postemergence, scale 0 to 100 (0 no effect, 100 complete control), read-out: Plant response rating, Barley, Spring
Text: as §1, §2

[6] = system: winter barley; assay: Test D postemergence; assay type: in vivo, Hordeum vulgare; conditions: Hordeum vulgare, post-emergence, Postemergence, scale 0 to 100 (0 no effect, 100 complete control), read-out: Plant response rating, Barley, Winter
Text: as §1, §2

[7] = system: wild mustard; assay: Test D preemergence; assay type: in vivo, Sinapis arvensis; conditions: Brassica, pre-emergence
Procedure, shortened: as §3

[8] = system: oilseed rape; assay: Test D postemergence; assay type: in vivo, Brassica napus; conditions: Brassica napus, post-emergence
Text: as §1, §2

[9] = system: bromegrass, downy; assay: Test D postemergence; assay type: in vivo, Bromus tectorum; conditions: Bromus tectorum, post-emergence, Postemergence, scale 0 to 100 (0 no effect, 100 complete control), read-out: Plant response rating, Bromegrass, Downy
Text: as §1, §2

[10] = system: wild buckwheat; assay: Test D preemergence; assay type: in vivo, Polygonum convolvulus; conditions: Fallopia convolvulus, pre-emergence
Text: as §1, §2

Structure (SMILES): FC(F)(F)c1cnn(-c2ccccc2Oc2ncc(Br)cn2)c1 [Compound 18, 5-bromo-2-[2-[4-(trifluoromethyl)-1H-pyrazol-1-yl]phenoxy]pyrimidine]
- pest or weed control at 16 g/ha ([1]; 16 g ai/ha, scale 0 (no effect) to 100 (complete control), read-out: Plant response rating, Windgrass): 5%
- pest or weed control at 31 g/ha ([1]; 31 g ai/ha, scale 0 (no effect) to 100 (complete control), read-out: Plant response rating, Windgrass): 20%
- pest or weed control at 62 g/ha ([1]; 62 g ai/ha, scale 0-100, read-out: Plant response rating, Windgrass): 75%
- pest or weed control at 125 g/ha ([1]; 125 g ai/ha, scale 0-100, read-out: Plant response rating, Windgrass): 100%
- pest or weed control at 250 g/ha ([1]; 250 g ai/ha, scale 0-100, read-out: Plant response rating, Windgrass): 100%
- pest or weed control at 31 g/ha ([2]; 31 g ai/ha): 70%
- pest or weed control at 62 g/ha ([2]; 62 g ai/ha): 85%
- pest or weed control at 125 g/ha ([2]; 125 g ai/ha): 95%
- pest or weed control at 250 g/ha ([2]; 250 g ai/ha): 100%
- pest or weed control at 16 g/ha ([3]; 16 g ai/ha, scale 0-100, read-out: Plant response rating, Speedwell): 100%
- pest or weed control at 31 g/ha ([3]; 31 g ai/ha, scale 0 to 100 (0 no effect, 100 complete control), read-out: Plant response rating, Speedwell): 100%
- pest or weed control at 62 g/ha ([3]; 62 g ai/ha, scale 0 to 100 (0 no effect, 100 complete control), read-out: Plant response rating, Speedwell): 100%
- pest or weed control at 125 g/ha ([3]; 125 g ai/ha, scale 0 to 100 (0 no effect, 100 complete control), read-out: Plant response rating, Speedwell): 100%
- pest or weed control at 250 g/ha ([3]; 250 g ai/ha, scale 0 to 100 (0 no effect, 100 complete control), read-out: Plant response rating, Speedwell): 100%
- pest or weed control at 16 g/ha ([4]; 16 g ai/ha, scale 0-100, read-out: Plant response rating, Chamomile): 5%
- pest or weed control at 31 g/ha ([4]; 31 g ai/ha, scale 0 to 100 (0 no effect, 100 complete control), read-out: Plant response rating, Chamomile): 10%
- pest or weed control at 62 g/ha ([4]; 62 g ai/ha, scale 0 to 100 (0 no effect, 100 complete control), read-out: Plant response rating, Chamomile): 5%
- pest or weed control at 125 g/ha ([4]; 125 g ai/ha, scale 0 to 100 (0 no effect, 100 complete control), read-out: Plant response rating, Chamomile): 10%
- pest or weed control at 250 g/ha ([4]; 250 g ai/ha, scale 0 to 100 (0 no effect, 100 complete control), read-out: Plant response rating, Chamomile): 10%
- plant injury at 16 g/ha ([5]; 16 g ai/ha): 5%
- plant injury at 31 g/ha ([5]; 31 g ai/ha): 5%
- plant injury at 62 g/ha ([5]; 62 g ai/ha): 10%
- plant injury at 125 g/ha ([5]; 125 g ai/ha): 15%
- plant injury at 250 g/ha ([5]; 250 g ai/ha): 25%
- plant injury at 16 g/ha ([6]; 16 g ai/ha): 10%
- plant injury at 31 g/ha ([6]; 31 g ai/ha): 10%
- plant injury at 62 g/ha ([6]; 62 g ai/ha): 10%
- plant injury at 125 g/ha ([6]; 125 g ai/ha): 15%
- plant injury at 250 g/ha ([6]; 250 g ai/ha): 20%
- pest or weed control at 16 g/ha ([7]; 16 g ai/ha, scale 0 (no effect) to 100 (complete control), read-out: Plant response rating, Mustard, Wild): 80%
- pest or weed control at 31 g/ha ([7]; 31 g ai/ha, scale 0-100, read-out: Plant response rating, Mustard, Wild): 85%
- pest or weed control at 62 g/ha ([7]; 62 g ai/ha, scale 0-100, read-out: Plant response rating, Mustard, Wild): 100%
- pest or weed control at 125 g/ha ([7]; 125 g ai/ha, scale 0-100, read-out: Plant response rating, Mustard, Wild): 90%
- pest or weed control at 250 g/ha ([7]; 250 g ai/ha, scale 0-100, read-out: Plant response rating, Mustard, Wild): 100%
- plant injury at 16 g/ha ([8]; 16 g ai/ha, scale 0-100, read-out: Plant response rating, Oilseed Rape): 35%
- plant injury at 31 g/ha ([8]; 31 g ai/ha, scale 0 to 100 (0 no effect, 100 complete control), read-out: Plant response rating, Oilseed Rape): 70%
- plant injury at 62 g/ha ([8]; 62 g ai/ha, scale 0 to 100 (0 no effect, 100 complete control), read-out: Plant response rating, Oilseed Rape): 100%
- plant injury at 125 g/ha ([8]; 125 g ai/ha, scale 0 to 100 (0 no effect, 100 complete control), read-out: Plant response rating, Oilseed Rape): 100%
- plant injury at 250 g/ha ([8]; 250 g ai/ha, scale 0 to 100 (0 no effect, 100 complete control), read-out: Plant response rating, Oilseed Rape): 100%
- pest or weed control at 16 g/ha ([9]; 16 g ai/ha): 15%
- pest or weed control at 31 g/ha ([9]; 31 g ai/ha): 15%
- pest or weed control at 62 g/ha ([9]; 62 g ai/ha): 15%
- pest or weed control at 125 g/ha ([9]; 125 g ai/ha): 20%
- pest or weed control at 250 g/ha ([9]; 250 g ai/ha): 15%
- pest or weed control at 16 g/ha ([10]; 16 g ai/ha, scale 0 (no effect) to 100 (complete control), read-out: Plant response rating, Buckwheat, Wild): 10%
- pest or weed control at 31 g/ha ([10]; 31 g ai/ha, scale 0-100, read-out: Plant response rating, Buckwheat, Wild): 70%
- pest or weed control at 62 g/ha ([10]; 62 g ai/ha, scale 0-100, read-out: Plant response rating, Buckwheat, Wild): 80%
- pest or weed control at 125 g/ha ([10]; 125 g ai/ha, scale 0-100, read-out: Plant response rating, Buckwheat, Wild): 100%
- pest or weed control at 250 g/ha ([10]; 250 g ai/ha, scale 0-100, read-out: Plant response rating, Buckwheat, Wild): 100%
